Data set [1] has as its target Aldo-keto reductase family 1 member B1 (Rattus norvegicus, UniProt P07943). Kind of data set: Inhibition of ALR2 from rat lens using D,L-glyceraldehyde as substrate measured as absorption of NADPH for 4 mins by UV/vis spectrophotmetry.
Data set [2] in a line: Antioxidant activity assessed as DPPH free radical scavenging activity at 100 uM after 40 mins by UV-Vis spectrophotometry. The format is physicochemical. For orientation: Loss of DPPH colour is used to gauge radical scavenging.
Another data set deals with Brain. Nature of the data set: Reduction of MDA level in Wistar rat brain at 100 uM after 30 mins in presence of ascorbic acid by UV-vis spectrophotmetry relative to control. Type of data set: functional. The conditions noted are these: 0.5 h.
Data set [3] is described as follows: Antioxidant activity assessed as DPPH free radical scavenging activity at 10 uM after 40 mins by UV-Vis spectrophotometry. Type of data set: physicochemical.
Data set [4] can be described thus: Antioxidant activity assessed as DPPH free radical scavenging activity at 1 uM after 40 mins by UV-Vis spectrophotometry. Type of data set: physicochemical.
Data set [5] is described as follows: Antioxidant activity assessed as DPPH free radical scavenging activity at 100 uM after 120 mins under sunlight by UV-Vis spectrophotometry. Type of data set: physicochemical. The conditions noted are these: 2 h.
Data set [6] is described as follows: Antioxidant activity assessed as DPPH free radical scavenging activity at 10 uM after 120 mins under sunlight by UV-Vis spectrophotometry. The conditions noted are these: 2 h. Type of data set: physicochemical.
Data set [7] in a line: Antioxidant activity assessed as DPPH free radical scavenging activity at 100 uM after 30 mins under sunlight by UV-Vis spectrophotometry. The format is physicochemical. As to conditions: 0.5 h.
Data set [8] is described as follows: Antioxidant activity assessed as DPPH free radical scavenging activity at 10 uM after 30 mins under sunlight by UV-Vis spectrophotometry. As to conditions: 0.5 h. The format is physicochemical.
Data set [9] is described as follows: Antioxidant activity assessed as DPPH free radical scavenging activity at 1 uM after 30 mins under sunlight by UV-Vis spectrophotometry. The format is physicochemical. As to conditions: 0.5 h.
Data set [10] in a line: Antioxidant activity assessed as DPPH free radical scavenging activity after 30 mins under sunlight by UV-Vis spectrophotometry. Type of data set: physicochemical.

pEC50, pIC50: −log10 of the molar value.

In general, pIC50 refers to −log10 of the IC50, conventionally taken in molar units. A high value points to a small IC50. Broadly, the inhibition is the relative decrease from the control value, in per cent. A word on the pEC50: it is the EC50 on a negative log10 scale, so that one unit is a factor of ten.

`COc1ccc(F)c(CN2CN(CC(=O)O)c3ccc(C)cc3S2(=O)=O)c1` gave a pIC50 in data set [1] of 5.46. The “inhibition (INH)” value in data set [2] was 18.9%. The inhibition at 100 µM in the data set on Brain is 4.47%.

`Cc1ccc2c(c1)S(=O)(=O)N(Cc1ccc(O)cc1)CN2CC(=O)O` gave a pIC50 in data set [1] of 5.25. For the same compound, in [2], the “inhibition (INH)” value was 5.2%. Moreover, the inhibition at 100 µM in the data set on Brain turned out to be 11%.

Take `Cc1c(C)c2c(c(C)c1O)CCC(C)(C(=O)O)O2` (stereo not drawn) [TROLOX]: the “inhibition (INH)” value in [2] is 97%; in data set [3] it was 91.1%; in data set [4], 32%. Besides, the inhibition at 100 µM with Brain came out at 100%.

In [1], `Cc1ccc2c(c1)S(=O)(=O)N(Cc1cc(O)ccc1F)CN2CC(=O)O` showed a pIC50 of 5.32. Besides, the “inhibition (INH)” value in data set [2] stood at 32.3%. Moreover, the inhibition at 100 µM with Brain turned out to be 14.1%.

`COc1ccc(CN2CN(CC(=O)O)c3ccc(C)cc3S2(=O)=O)cc1` gave a pIC50 in data set [1] of 4.74. For the same compound, the “inhibition (INH)” value in data set [2] was 3.1%. In addition, the inhibition at 100 µM with Brain is 8.4%.

The compound `COc1ccc(CN2CN(CC(=O)O)c3ccc(Br)cc3S2(=O)=O)cc1` gave a pIC50 in data set [1] of 5.14. Further, the “inhibition (INH)” value in data set [2] is given as 6.2%. Moreover, in the data set on Brain, the inhibition at 100 µM is 2.6%.

Turning to `O=C(O)CN1CN(Cc2ccccc2)S(=O)(=O)c2cc(O)ccc21`, the pIC50 in data set [1] was 5.03. Further, the “inhibition (INH)” value was 93.3% in data set [5] and 24.4% in data set [6]. Further, the inhibition at 100 µM in the data set on Brain was 88%.

In data set [1], `O=C(O)CN1CN(Cc2ccc(O)cc2)S(=O)(=O)c2cc(O)ccc21` showed a pIC50 of 5.12. Further, the “inhibition (INH)” value in data set [7] amounted to 98%; in data set [8] it was 92.3%; in data set [9], 42.1%. The negative-log EC50 (pEC50) in [10] was 5.12. Besides, the inhibition at 100 µM with Brain was 100%.

The compound `COc1ccc(F)c(CN2CN(CC(=O)O)c3ccc(Br)cc3S2(=O)=O)c1` gave a pIC50 in [1] of 5.74. For the same compound, the “inhibition (INH)” value in data set [2] came to 44.3%. Also, the inhibition at 100 µM in the data set on Brain was found to be 9.55%.

Regarding `COc1ccc2c(c1)S(=O)(=O)N(Cc1ccccc1)CN2CC(=O)O`, in data set [1], the pIC50 is 4.87. Also, the “inhibition (INH)” value in [2] turned out to be 53.1%. The inhibition at 100 µM with Brain was found to be 42.3%.

`COc1ccc(CN2CN(CC(=O)O)c3ccc(OC)cc3S2(=O)=O)cc1` showed a pIC50 in [1] of 4.95. Also, the “inhibition (INH)” value in data set [2] was 40.6%. Also, in the data set on Brain, the inhibition at 100 µM came out at 31.5%.

The compound `COc1ccc(CN2CN(CC(=O)O)c3ccc(Cl)cc3S2(=O)=O)cc1` gave a negative-log IC50 (pIC50) in [1] of 5.12. In addition, the “inhibition (INH)” value in data set [2] is reported as 5.9%. In the data set with Brain, the inhibition at 100 µM worked out at 1.6%.

`CC(/C=C1\SC(=S)N(CC(=O)O)C1=O)=C\c1ccccc1`: the “inhibition (INH)” value in [2] turned out to be 0%. Moreover, the inhibition at 100 µM in the data set on Brain is 0%.
